Here are results for seven compounds from ChEMBL document CHEMBL3352287, “Cytotoxic resin glycosides from Ipomoea aquatica and their effects on intracellular Ca2+ concentrations” (J Nat Prod, 2014).

pIC50: −log10 of the molar value. Active and inactive are the calls of the source. The rule behind the calls is not given here. A value given as a limit tells only on which side of the number the result lay.

The subject of assay [1] is U2OS. The assay is described as follows: Cytotoxicity against human U2OS cells after 48 hrs by MTT assay. The assay is classed as functional, cell-based. In general terms: Formazan colour is commonly taken as a measure of viable cells.
The test system of assay [2] is HepG2. The assay is described as follows: Increase in intracellular Ca2+ level in human HepG2 cells assessed as increase in fluorescence intensity at 30 uM after 6 hrs by Fluo-3 AM -based fluorescence assay relative to control. The assay is classed as functional.
Assay [3] in a line: Cytotoxicity against human MCF7/ADR cells after 48 hrs by MTT assay. It is filed as functional, cell-based. The conditions noted are these: NCI/ADR-RES.
Assay [4] concerns HepG2. The assay is described as follows: Cytotoxicity against human HepG2 cells after 48 hrs by MTT assay. It is filed as functional, cell-based. The conditions noted are these: HepG2, 48 h.
Assay [5] relates to MCF7. The assay is described as follows: Cytotoxicity against human MCF7 cells after 48 hrs by MTT assay. The assay is classed as functional, cell-based. The following applies: MCF7, 48 h.
Assay [6] deals with SMMC-7721. The assay is described as follows: Cytotoxicity against human SMMC7721 cells after 48 hrs by MTT assay. It is filed as functional, cell-based. The following applies: SMMC-7721, 48 h.
A short description of assay [7]: Cytotoxicity against human MG63 cells after 48 hrs by MTT assay. The assay is classed as functional, cell-based. The following applies: MG-63, 48 h.
Assay [8] relates to HepG2. The assay is described as follows: Cell cycle arrest in human HepG2 cells assessed as increase in G0/G1 phase cells after 48 hrs using propidium iodide by flow cytometry. The assay is classed as functional, cell-based. On the technique in general: A flow cytometer gives signals particle by particle.
For assay [9], the system named is HepG2. The assay is described as follows: Cell cycle arrest in human HepG2 cells assessed as increase in subG1 phase cells at 8 uM after 48 hrs using propidium iodide by flow cytometry. The assay is classed as functional, cell-based.
For assay [10], the system named is SMMC-7721. The assay is described as follows: Cytotoxicity against human SMMC7721 cells at 10 uM after 48 hrs by MTT assay. It is filed as functional, cell-based.
The test system of assay [11] is MCF7. The assay is described as follows: Cytotoxicity against human MCF7 cells at 10 uM after 48 hrs by MTT assay. The assay is classed as functional, cell-based.
For assay [12], the system named is U2OS. The assay is described as follows: Cytotoxicity against human U2OS cells at 10 uM after 48 hrs by MTT assay. The assay is classed as functional, cell-based.
The next assay relates to MG-63. The assay is described as follows: Cytotoxicity against human MG63 cells at 10 uM after 48 hrs by MTT assay. It is filed as functional, cell-based.
A further assay relates to NCI/ADR-RES. The assay is described as follows: Cytotoxicity against human MCF7/ADR cells at 10 uM after 48 hrs by MTT assay. The assay is classed as functional, cell-based.
Assay [13] has as its system HepG2. The assay is described as follows: Cytotoxicity against human HepG2 cells at 10 uM after 48 hrs by MTT assay. It is filed as functional, cell-based.

Consider `CCCCCCCC(=O)O[C@@H]1[C@@H](O)[C@@H](O)[C@H](O[C@@H]2[C@@H](O[C@@H]3O[C@@H](C)[C@H](O)[C@@H](O)[C@H]3O)[C@@H](OC(=O)CCCCCCC)[C@H](O[C@@H]3[C@H]4OC(=O)CCCCCCCCC[C@H](CCCCC)O[C@@H]5O[C@H](C)[C@H](O)[C@H](O)[C@H]5O[C@H](O[C@H]3C)[C@@H]4O)O[C@H]2C)O[C@H]1C`, for which the pIC50 is 5.02 in the assay with U2OS [1]; < 5.00 in [3]; 5.28 in the assay on HepG2 [4]; 5.30 with MCF7 [5]; 5.05 with SMMC-7721 [6]; 5.43 in [7] (read-out: IC50). Moreover, the outcome in the assay on HepG2 [2] was Active.

In the case of `CCCCCCCC(=O)O[C@@H]1[C@@H](O)[C@@H](O)[C@H](O[C@@H]2[C@@H](O[C@@H]3O[C@@H](C)[C@H](O)[C@@H](O)[C@H]3O)[C@@H](OC(=O)CCCCC)[C@H](O[C@@H]3[C@H]4OC(=O)CCCCCCCCC[C@H](CCCCC)O[C@@H]5O[C@H](C)[C@H](O)[C@H](O)[C@H]5O[C@H](O[C@H]3C)[C@@H]4O)O[C@H]2C)O[C@H]1C`, the pIC50 in the assay on U2OS [1] is 5.35; in assay [3], < 5.00; in the assay on HepG2 [4], 5.62; in the assay on MCF7 [5], 5.38; in the assay with SMMC-7721 [6], 5.20; in assay [7] (read-out: IC50) it was 5.28. Also, the outcome in the assay with HepG2 [2] and in the assay with HepG2 [9] was Active. Also, the Activity result in the assay with HepG2 [8] is “Dose-dependent effect”.

With `CCCCCCCCCC(=O)O[C@H]1[C@H](O[C@@H]2[C@H]3OC(=O)CCCCCCCCC[C@H](CCCCC)O[C@@H]4O[C@H](C)[C@H](O)[C@H](O)[C@H]4O[C@H](O[C@H]2C)[C@@H]3O)O[C@@H](C)[C@H](O[C@@H]2O[C@@H](C)[C@H](OC(=O)CCCCCCC)[C@@H](O)[C@H]2O)[C@H]1O[C@@H]1O[C@@H](C)[C@H](O)[C@@H](O)[C@H]1O`, the pIC50 with U2OS [1] is < 5.00; in assay [3] it was < 5.00; in the assay with HepG2 [4], 5.31; in the assay with MCF7 [5], 5.01; in the assay on SMMC-7721 [6], < 5.00; in [7] (read-out: IC50) it was 5.22. In the assay on HepG2 [2], the outcome was Active.

`CCCCCCCC(=O)O[C@@H]1[C@@H](O)[C@H](C)O[C@@H](O[C@@H]2[C@@H](O[C@@H]3O[C@H](CO)[C@@H](O)[C@H](O)[C@H]3O)[C@@H](OC(=O)CCCCCCC)[C@H](O[C@@H]3[C@H]4OC(=O)CCCCCCCCC[C@H](CCCCC)O[C@@H]5O[C@H](C)[C@H](O)[C@H](O)[C@H]5O[C@H](O[C@H]3C)[C@@H]4O)O[C@H]2C)[C@@H]1O`: the outcome in the assay with SMMC-7721 [10], in the assay with MCF7 [11], with U2OS [12], with MG-63, in the assay on NCI/ADR-RES and with HepG2 [13] was inactive.

As for `CCCCCCCC(=O)O[C@@H]1[C@@H](O)[C@@H](O)[C@H](O[C@@H]2[C@@H](O[C@@H]3O[C@H](CO)[C@@H](O)[C@H](O)[C@H]3O)[C@@H](OC(=O)CCCCCCC)[C@H](O[C@@H]3[C@H]4OC(=O)CCCCCCCCC[C@H](CCCCC)O[C@@H]5O[C@H](C)[C@H](O)[C@H](O)[C@H]5O[C@H](O[C@H]3C)[C@@H]4O)O[C@H]2C)O[C@H]1C`, the pIC50 with U2OS [1] was < 5.00; in [3], < 5.00; in the assay with HepG2 [4] it was 5.07; in the assay with MCF7 [5] it was 5.13; in the assay with SMMC-7721 [6] it was < 5.00; in assay [7] (read-out: IC50) it was 5.27. The Activity in the assay with HepG2 [2] is given as >200%.

Turning to `CCCCCCCC(=O)O[C@@H]1[C@@H](O)[C@@H](O)[C@H](O[C@@H]2[C@@H](O[C@@H]3O[C@@H](C)[C@H](O)[C@@H](O)[C@H]3O)[C@@H](OC(=O)[C@@H](C)CC)[C@H](O[C@@H]3[C@H]4OC(=O)CCCCCCCCC[C@H](CCCCC)O[C@@H]5O[C@H](C)[C@H](O)[C@H](O)[C@H]5O[C@H](O[C@H]3C)[C@@H]4O)O[C@H]2C)O[C@H]1C`, the pIC50 in the assay with U2OS [1] is 5.03; in assay [3] it was < 5.00; in the assay on HepG2 [4], 5.43; in the assay on MCF7 [5], 5.39; with SMMC-7721 [6] it was 5.02; in assay [7] (read-out: IC50), 5.11. Moreover, the result with HepG2 [2] was Active.

Take `COc1cccc2c1C(=O)c1c(O)c3c(c(O)c1C2=O)C[C@@](O)(C(=O)CO)C[C@@H]3O[C@H]1C[C@H](N)[C@H](O)[C@H](C)O1` [DOXORUBICIN]: the pIC50 with U2OS [1] is 6.19; with HepG2 [4], 6.44; in the assay with MCF7 [5] it was 6.34; with SMMC-7721 [6], 5.96; in [7], 6.13.

As usually defined, the pIC50 is −log10 of the IC50, conventionally taken in molar units.
